Measurements as given in patent US7189391B2, “Method of in vitro preconditioning healthy donor's myoblasts before transplantation thereof in compatible patients suffering of myopathies like muscular dystrophy, for improving transplantation success” (Université Laval, priority 1996, dated 2007).

Experiments:
mdx mice [1] = assay: Survival of retrovirally labelled myoblasts 3 days after transplantation in TA muscle; assay type: in vivo, mouse; settings: myoblasts grown with bFGF, 4×10^6 cells injected
Procedure: (§1) The mdx mice were divided in three groups. Six mdx mice of one group were grafted in both tibialis anterior (TA) muscles: myoblasts grown with bFGF were injected in the left TA and myoblasts grown without bFGF were injected in the right TA. Myoblasts grown without bFGF were injected in only the left TA of six other mdx mice. These six mdx mice were then injected intramuscularly four times (after grafting 0, +1, +4 and +6 days) either with 10 μl of bFGF (100 ng/ml, 3 mice) or with 10 μl of HBSS (3 mice). The last five mice were grafted in both TA muscle with normal CD1 mouse myoblasts infected with replication defective retroviral vector LNPOZC7 (gift from Dr C. Cepko, Harvard, Boston, Mass.) which contains the LacZ gene. The left TA muscles were injected with 4 million myoblasts grown with bFGF, while the right TA muscles were injected with 4 million myoblasts grown without bFGF. Three days after grafting, these 5 mice were sacrificed to detect the number of β-galactosidase positive cells which survived in each TA muscle. The numbers of β-galactosidase positive cells were counted in 8 μm sections obtained at every 160 μm throughout the muscle. The total number of cells counted was multiplied by 20 to obtain an estimate of the number of surviving cells and a correction was made to account for the percentage of unlabelled cells in cultures with and without bFGF. […]

[2] = test system: primary myoblast cultures; assay: Effects of bFGF on primary myoblast culture (cell count, desmin staining); assay type: cell-based, mouse
From the text: Primary myoblast cultures were established from muscle biopsies of newborn transgenic mice^26. The founder mouse (TnI Lac Z1/29) was provided by Dr. Hasting (McGill University, Montreal, Canada) onto the CD1 background and was reproduced in our laboratory. This transgenic mouse expresses the β-galactosidase gene under the control of the promoter of the quail fast skeletal muscle troponin I gene^16. […] Before starting myoblast cultures, it was necessary to identify transgenic newborns by X-gal staining of a small muscle biopsy because heterozygote transgenic mice were used as parents. Myogenic cells were released from skeletal muscle fragments of the transgenic newborns by serial enzyme treatments. First, a one hour digestion was done with 600 U/ml collagenase (Sigma, St. Louis, Mo., USA). This was followed by a 30 minute incubation in Hanck's balanced salt solution (HBSS) containing 0.1% w/v trypsin (Gibco Lab, Grand Island, N.Y., USA). Satellite cells were placed in 75 cm^2 culture flasks (Coster, Cambridge, Mass., USA) in proliferating medium, i.e. 199 medium (Gibco Lab.) with 15% fetal bovine serum (Gibco Lab.), 1% penicillin (10,000 U/ml) and 1% streptomycin (10,000 U/ml).
One day after starting culture, the culture medium of some flasks was replaced by medium containing 100 ng/ml human recombinant bFGF (Sigma). Three days after starting culture, myoblasts were detached from the flasks with 0.1% trypsin followed by three suspensions in HBSS and centrifugations (6500 RPM, 5 minutes). The final cell pellet was diluted in only 40 μl of HBSS.
The primary cultures were washed with PBS and fixed with 100% methanol at −4° C. They were then washed again 3 times with PBS and incubated 1 hr with a mAb anti-human desmin (Dako, Copenhagen, Denmark) diluted 1/50 with PBS containing 1% blocking serum (i.e. 0.33% rabbit serum, 0.33% horse serum and 0.33 fetal calf serum). They were washed 3 times with PBS with 1% blocking serum and incubated 1 hr with a 1/100 dilution (in PBS with 1% blocking serum) of a rabbit anti-mouse immunoglobulin (Dako).
To try to understand the beneficial effects of bFGF on myoblast transplantation, we examined the effect of a short stimulation (2 days) with 100 ng/ml bFGF on primary myoblast cultures. The total number of cells in each flask was not significant different (31.9±6.8×10^6 with bFGF n=5, 30.0±5.8×10^6 without FGF n=9, unpaired t-test: p=0.573). […] In these cultures, there was no difference in the percentage of myogenic nuclei (nuclei in myoblasts and in myotubes) between the two groups of cultures (Table 3, line 1). More myogenic cells were however fused in the absence of bFGF (Table 3, line 2). There was an higher percentage of the total nuclei (including myoblasts, myotubes and fibroblasts) which were myoblast nuclei in cultures containing bFGF (Table 3, line 3). The increase of myoblasts was more clear when the percentage of myoblasts was calculated among mononuclear cells (excluding the myotubes) (Table 3, lines 4 and 5). This was however only a 35% increase.

mdx mice [3] = assay: Intramuscular injections of bFGF after myoblast transplantation in mdx mice; assay type: in vivo, mouse; settings: intramuscular injections of bFGF vs HBSS control
Procedure: as §1

myoblasts = assay: Migration of transplanted myoblasts cultured with concanavalin A, anterior tibialis muscle of mice; assay type: in vivo, mouse; settings: CMVLacZ myoblasts cultured 2 days with 20 μg/ml concanavalin A
Procedure: Myoblasts infected with a retrovirus expressing a beta-galactosidase gene have been cultured for four days in the presence or absence of 20 μg/ml concanavalin A, a lectine which stimulates the expression of metalloproteases. These myoblasts were then injected in one single site of the anterior tibialis muscle of eight mice, in order to verify the degree with which the transplanted cells are capable of migrating through the recipient tissue. After thirty days, mice were sacrificed and the muscle tissue was harvested, frozen and 10 μm thick slices were mounted on slides. […] Therefore, the presence of metalloproteases in the preconditioning medium or during the transplantation is beneficial to the spreading of the transplanted cells from the site of the injection through the recipient muscle tissue.
First experiment: Myoblasts obtained from CMVLacZ mice (expressing a Beta-galactosidase gene) were cultured for two (2) days in the presence of twenty (20) μg/ml concanavalin A, a lectine which stimulates the expression of metalloproteases. When these myoblasts were injected in the anterior tibialis muscle of recipient mice, the migration of transplanted cells was increased by three (3) fold comparatively to myoblasts having not received the concanavalin treatment.

[4] = test system: primary cultures of myoblasts; assay: Transplantation of TnI-βGal myoblasts cultured with phorbol ester (TPA); assay type: in vivo, mouse; settings: TPA 100 ng/ml, 2 days culture, n=5 mice
Procedure: Imm 7 neo: expresses neomycin. Imm 7 Matrilysine: expresses neomycin and matrilysine. Tn I βgal: untreated transgenic mouse myoblasts expressing β-Gal. Tn I βGal+TPA: transgenic mouse myoblasts/β-Gal treated with phorbol ester.
Second experiment: primary cultures of myoblasts were obtained from transgenic mice (TnI-βGal+TPA). Myoblasts were cultured for two (2) days in the presence of phorbol ester (TPA 100 ng/ml) which also stimulates the expression metalloproteases.

[5] = with bFGF 100 ng/ml, 2 days, mean ± SD

With basic fibroblast growth factor [bFGF] the “number of β-galactosidase positive cells 3 days after transplantation” value (mdx mice [1]; left TA muscles, 5 mice) was 3.29±1.54×10^5 cells, the “% of the injected cells surviving at 3 days” value (mdx mice [1]) was 8.2% and the “total number of cells in each flask” value ([2]; 2 days with 100 ng/ml bFGF, n=5) was 31.9±6.8×10^6. The “increase of the percentage of myoblasts among mononuclear cells” value ([2]; 2 days with bFGF vs without) was 35%, the “% myoblast nuclei relative to non myotube nuclei” value [2, 5] was 32.2 ± 4.1% and the “% myoblast nuclei relative to total nuclei” value [2, 5] was 30.9 ± 3.8%. For the same compound, the “% of myoblast and myotube nucleic relative to total nuclei” value [2, 5] was 35.1 ± 4.8%, the “% of myotube nuclei relative to total myotube and myoblast nuclei” value [2, 5] was 11.5 ± 6.6% and the “% of non-myoblast nuclei relative to non myotube nuclei” value [2, 5] was 67.8 ± 4.1%. For the same compound, the “difference in the percentage of hybrid or donor muscle fibers vs HBSS injections” value (mdx mice [3]) was “No significant difference”.
For concanavalin A, the “increase of migration of transplanted cells vs untreated myoblasts” value (myoblasts) was 3 fold.
In the case of `CCCCCCCCCCCCCC(=O)O[C@@H]1[C@@H](C)[C@@]2(O)[C@@H](C=C(CO)C[C@]3(O)C(=O)C(C)=C[C@@H]23)[C@@H]2C(C)(C)[C@]12OC(C)=O` [TPA, phorbol ester], the “area of generated fibers vs non-treated preparation” value [4] is reported as “four fold greater” and the “fibers generated vs non-treated preparation” value [4] is reported as “four times more fibers”.
